US20240425517A1, “NOVEL COMPOUND FOR DEGRADATION OF TARGET PROTEIN OR POLYPEPTIDE BY POLYUBIQUITINATION” (PRAZER THERAPEUTICS INC., priority 2021, published 2024)

Target: T1, BRD4 proteins (Homo sapiens, UniProt O60885)
T1 construct: endogenous in cells; host or cells: MM.1S
Assay: Degradation of BRD4 protein in MM.1S cell lines (Western blot densitometry)
Format: cell-based
Conditions: MM.1S cells, 10 μM, 24 hours
Procedure: To confirm that the compounds (BRD4 degraders) of Preparation Examples I′ to IV′ reduce the amount of BRD4 proteins, experiments were performed using MM.1S cell lines, which are B cells derived from the blood of multiple myeloma patients.
Specifically, the MM.1S cells were cultured in RPMI-1640 medium supplemented with 10% fetal bovine serum and Penicillin/Streptomycin (100 U/mL), transferred to a 6-well plate, and after 24 hours, the BRD4 degraders were diluted in the culture medium and the cells were treated with 10 μM each. After treatment, the cells were incubated in a C02 incubator for 24 hours. Through protein immunoblotting (Western Blot), the degrading capacity of each compound against BRD4 proteins in cells was confirmed. After cell culture was completed according to the experimental conditions, the cells were collected and centrifuged at 1,800 rpm for 3 minutes. The cells in the precipitate were lysed with RIPA (25 mM Tris-HCl pH 7.6, 150 mM NaCl, 1% NP-40, 1% sodium deoxycholate, 0.1% SDS, 1× Protease Inhibitor Cocktail), 5× sample buffer was added, and then heated at 100° C. for 15 minutes. The prepared sample was electrophoresed with sodium dodecyl sulfate poly acrylamide gel electrophoresis (SDS-PAGE), and then the proteins in the gel were transferred to a PVDF membrane using Trans-Blot Turbo. The membrane was treated with a 5% bovine serum albumin (BSA) solution and blocked at room temperature for 2 hours, and then BRD4 and R-actin antibodies were diluted in the 5% BSA solution to react with the membrane at 4° C. overnight. After washed with PBST (0.5% Tween20) 5 times, horse radish peroxidase (HRP)-conjugated secondary antibodies were diluted in PBST to react at room temperature for 2 hours, and then washed again with a PBST solution 5 times. After enzyme-substrate reaction was carried out using a HRP substrate, a signal was measured with chemi-doc equipment, and the densitometry of a band corresponding to the BRD4 protein detected in the Preparation Example Compounds was quantitatively analyzed. The case when the degrading capacity of each BRD4 degrader was reduced by less than 40% is indicated as +, the case when the degrading capacity was reduced by 40% to 70% (exclusive of 70) is indicated as ++, the case when the degrading capacity was reduced by 70% or more is indicated as +++ in Tables 16 to 19 below. As shown in the following Tables, it was confirmed that the compounds of Preparation Examples I′ to IV′ according to the present invention have excellent degrading capacity.

| SMILES | BRD4 degrading capacity (%) |
| --- | --- |
| COC(=O)c1cc(N2CCN(C(=O)C[C@@H]3N=C(c4ccc(Cl)cc4)c4c(sc(C)c4C)-n4c(C)nnc43)CC2)ccc1C#CCN.Cl [4-2′, methyl (S)-2-(3-aminoprop-1-yn-1-yl)-5-(4-(2-(4-(4-chlorophenyl)-2,3,9-trimethyl-6H-thieno[3,2-f][1,2,4]triazolo[4,3-a][1,4]diazepin-6-yl)acetyl)piperazin-1-yl)benzoate hydrochloride] | +++ (the degrading capacity was reduced by 70% or more) |
| COC(=O)c1ccc(N2CC3(CCN(C(=O)C[C@@H]4N=C(c5ccc(Cl)cc5)c5c(sc(C)c5C)-n5c(C)nnc54)CC3)C2)cc1C#CCN.Cl [5-168′, methyl (S)-2-(3-aminoprop-1-yn-1-yl)-4-(7-(2-(4-(4-chlorophenyl)-2,3,9-trimethyl-6H-thieno[3,2-f][1,2,4]triazolo[4,3-a][1,4]diazepin-6-yl)acetyl)-2,7-diazaspiro[3.5]nonan-2-yl)benzoate hydrochloride] | +++ (the degrading capacity was reduced by 70% or more) |
| COC(=O)c1ccc(C#CCNC(=O)C2CCN(C(=O)C[C@@H]3N=C(c4ccc(Cl)cc4)c4c(sc(C)c4C)-n4c(C)nnc43)CC2)cc1C#CCN.Cl [5-28′, methyl (S)-2-(3-aminoprop-1-yn-1-yl)-4-(3-(1-(2-(4-(4-chlorophenyl)-2,3,9-trimethyl-6H-thieno[3,2-f][1,2,4]triazolo[4,3-a][1,4]diazepin-6-yl)acetyl)piperidine-4-carboxamido)prop-1-yn-1-yl)benzoate hydrochloride] | +++ (the degrading capacity was reduced by 70% or more) |
| COC(=O)c1ccc(C(=O)N2CCN(C(=O)C[C@@H]3N=C(c4ccc(Cl)cc4)c4c(sc(C)c4C)-n4c(C)nnc43)CC2)cc1C#CCN.Cl [5-140′, methyl (S)-2-(3-aminoprop-1-yn-1-yl)-4-(4-(2-(4-(4-chlorophenyl)-2,3,9-trimethyl-6H-thieno[3,2-f][1,2,4]triazolo[4,3-a][1,4]diazepin-6-yl)acetyl)piperazine-1-carbonyl)benzoate hydrochloride] | +++ (the degrading capacity was reduced by 70% or more) |
| Cc1sc2c(c1C)C(c1ccc(Cl)cc1)=N[C@@H](CC(=O)NCC#Cc1ccc(C#CCN)cc1)c1nnc(C)n1-2.Cl [4-128′] | ++ (the degrading capacity was reduced by 40% to 70% (exclusive of 70)) |
| Cc1sc2c(c1C)C(c1ccc(Cl)cc1)=N[C@@H](CC(=O)NCCCC(=O)Nc1ccc(C(=O)O)c(C#CCN)c1)c1nnc(C)n1-2.Cl [5-53′, (S)-2-(3-aminoprop-1-yn-1-yl)-4-(4-(2-(4-(4-chlorophenyl)-2,3,9-trimethyl-6H-thieno[3,2-f][1,2,4]triazolo[4,3-a][1,4]diazepin-6-yl)acetamido)butanamido)benzoic acid hydrochloride] | ++ (the degrading capacity was reduced by 40% to 70% (exclusive of 70)) |
| COC(=O)c1ccc(OCCCCNC(=O)C[C@@H]2N=C(c3ccc(Cl)cc3)c3c(sc(C)c3C)-n3c(C)nnc32)cc1C#CCN.Cl [5-12′, methyl (S)-2-(3-aminoprop-1-yn-1-yl)-4-(4-(2-(4-(4-chlorophenyl)-2,3,9-trimethyl-6H-thieno[3,2-f][1,2,4]triazolo[4,3-a][1,4]diazepin-6-yl)acetamido)butoxy)benzoate hydrochloride] | +++ (the degrading capacity was reduced by 70% or more) |
| Cc1sc2c(c1C)C(c1ccc(Cl)cc1)=N[C@@H](CC(=O)NCC#Cc1ccc(C#CCN)s1)c1nnc(C)n1-2.Cl [4-10′, (S)—N-(3-(5-(3-aminoprop-1-yn-1-yl)thiophen-2-yl)prop-2-yn-1-yl)-2-(4-(4-chlorophenyl)-2,3,9-trimethyl-6H-thieno[3,2-f][1,2,4]triazolo[4,3-a][1,4]diazepin-6-yl)acetamide hydrochloride] | +++ (the degrading capacity was reduced by 70% or more) |
| COC(=O)c1ccc(NC(=O)C[C@@H]2N=C(c3ccc(Cl)cc3)c3c(sc(C)c3C)-n3c(C)nnc32)cc1C#CCN.Cl [3-25′, methyl (S)-2-(3-aminoprop-1-yn-1-yl)-4-(2-(4-(4-chlorophenyl)-2,3,9-trimethyl-6H-thieno[3,2-f][1,2,4]triazolo[4,3-a][1,4]diazepin-6-yl)acetamido)benzoate hydrochloride] | +++ (the degrading capacity was reduced by 70% or more) |
| COc1ccc(NC(=O)CCCNC(=O)C[C@@H]2N=C(c3ccc(Cl)cc3)c3c(sc(C)c3C)-n3c(C)nnc32)cc1C#CCN [5-63′, (S)—N-(3-(3-aminoprop-1-yn-1-yl)-4-methoxyphenyl)-4-(2-(4-(4-chlorophenyl)-2,3,9-trimethyl-6H-thieno[3,2-f][1,2,4]triazolo[4,3-a][1,4]diazepin-6-yl)acetamido)butanamide trifluoroacetic acid] | ++ (the degrading capacity was reduced by 40% to 70% (exclusive of 70)) |
| COC(=O)c1ccc(C(=O)N2CCC3(CC2)CN(C(=O)C[C@@H]2N=C(c4ccc(Cl)cc4)c4c(sc(C)c4C)-n4c(C)nnc42)C3)cc1C#CCN [5-39′, methyl (S)-2-(3-aminoprop-1-yn-1-yl)-4-(2-(2-(4-(4-chlorophenyl)-2,3,9-trimethyl-6H-thieno[3,2-f][1,2,4]triazolo[4,3-a][1,4]diazepin-6-yl)acetyl)-2,7-diazaspiro[3.5]nonane-7-carbonyl)benzoate trifluoroacetic acid] | ++ (the degrading capacity was reduced by 40% to 70% (exclusive of 70)) |
| COC(=O)c1ccc(C(=O)NCCCNC(=O)C2CCN(C(=O)C[C@@H]3N=C(c4ccc(Cl)cc4)c4c(sc(C)c4C)-n4c(C)nnc43)CC2)cc1C#CCN.Cl [5-27′, methyl (S)-2-(3-aminoprop-1-yn-1-yl)-4-((3-(1-(2-(4-(4-chlorophenyl)-2,3,9-trimethyl-6H-thieno[3,2-f][1,2,4]triazolo[4,3-a][1,4]diazepin-6-yl)acetyl)piperidine-4-carboxamido)propyl)carbamoyl)benzoate hydrochloride] | ++ (the degrading capacity was reduced by 40% to 70% (exclusive of 70)) |
| Cc1sc2c(c1C)C(c1ccc(Cl)cc1)=N[C@@H](CC(=O)NCCCCCCCCNC(=O)c1ccc(C#CCN)o1)c1nnc(C)n1-2.Cl [4-235′] | ++ (the degrading capacity was reduced by 40% to 70% (exclusive of 70)) |
| COC(=O)c1ccc(NC(=O)C2CCN(C(=O)C[C@@H]3N=C(c4ccc(Cl)cc4)c4c(sc(C)c4C)-n4c(C)nnc43)CC2)cc1C#CCNC(=O)OC(C)OC(=O)C(C)C (stereo partly drawn) [5-157′, methyl 4-(1-(2-((S)-4-(4-chlorophenyl)-2,3,9-trimethyl-6H-thieno[3,2-f][1,2,4]triazolo[4,3-a][1,4]diazepin-6-yl)acetyl)piperidine-4-carboxamido)-2-(3-(((1-(isobutyryloxy)ethoxy)carbonyl)amino)prop-1-yn-1-yl)benzoate] | +++ (the degrading capacity was reduced by 70% or more) |
| Cc1sc2c(c1C)C(c1ccc(Cl)cc1)=N[C@@H](CC(=O)NCCCCCC(=O)Nc1cccc(C#CCN)c1)c1nnc(C)n1-2.Cl [5-104′, (S)—N-(3-(3-aminoprop-1-yn-1-yl)phenyl)-6-(2-(4-(4-chlorophenyl)-2,3,9-trimethyl-6H-thieno[3,2-f][1,2,4]triazolo[4,3-a][1,4]diazepin-6-yl)acetamido)hexanamide hydrochloride] | ++ (the degrading capacity was reduced by 40% to 70% (exclusive of 70)) |
| COC(=O)c1ccc(N2CC3(CN(C(=O)C[C@@H]4N=C(c5ccc(Cl)cc5)c5c(sc(C)c5C)-n5c(C)nnc54)C3)C2)cc1C#CCN [5-40′, methyl (S)-2-(3-aminoprop-1-yn-1-yl)-4-(6-(2-(4-(4-chlorophenyl)-2,3,9-trimethyl-6H-thieno[3,2-f][1,2,4]triazolo[4,3-a][1,4]diazepin-6-yl)acetyl)-2,6-diazaspiro[3.3]heptan-2-yl)benzoate trifluoroacetic acid] | +++ (the degrading capacity was reduced by 70% or more) |
| COC(=O)c1ccc(NC(=O)CCCCCNC(=O)C[C@@H]2N=C(c3ccc(Cl)cc3)c3c(sc(C)c3C)-n3c(C)nnc32)cc1C#CCN.Cl [5-6′, methyl (S)-2-(3-aminoprop-1-yn-1-yl)-4-(6-(2-(4-(4-chlorophenyl)-2,3,9-trimethyl-6H-thieno[3,2-f][1,2,4]triazolo[4,3-a][1,4]diazepin-6-yl)acetamido)hexanamido)benzoate hydrochloride] | ++ (the degrading capacity was reduced by 40% to 70% (exclusive of 70)) |
